# In patent US11098041B2 (Merck Patent GmbH, priority 2014, dated 2021):
# How the values were obtained:
# full-length human BTK = full-length human BTK (Homo sapiens (Human), UniProt Q06187); assay: Assay A: microfluidic off-chip mobility shift assay against BTK enzyme; type: biochemical
# [1] = test system: IL-1β release by human THP-1 cells; assay: Assay D: THP-1 cells IL-1β release ELISA assay; type: cell-based; settings: PMA and LPS, BzATP stimulation
# Experimental: Assay D: THP-1 Cells IL-1β release ELISA Assay
# The assay measures IL-1β release by human THP-1 cells after treatment with PMA and LPS in response to BzATP stimulation in order to evaluate the potency of P2X7 inhibitors. THP-1 cells (2×10^5 cells/mL) in culture medium (RPMI1640 (Gibco, #22400-089)+10% HI-FBS (Gibco, #10082-147)+1% L-Glutamine (Gibco, #25030)+1% Pen/Strep (Gibco, #15140) complemented with 0.5 μM PMA (Sigma, #P8139) were incubated for 30 min at 37° C. At the end of the incubation time, the cells were titrated and washed gently in PBS. The cells were then re-suspended to a density of 1.5×10^5 cell/mL in culture medium complemented with 10 ng/mL LPS (Sigma, #L5293). The cell suspension was dispensed (40 μL/well) into a Corning 384-well plate. After 4 hr of incubation at 37° C., the cells were treated with 20 μL of test compounds at various concentrations. The plate was incubated for 30 min at 37° C. and then the cells were treated with 20 μL of 3.2 mM BzATP (Sigma. #B6396) (0.8 mM final concentration). The plate was incubated for an additional 30 min at 37° C., and then subjected to centrifugation (4 min, 1000 rpm). Supernatant (60 μL) from each well was transferred to a 384-matrix PP plate. The plate was then stored at 4° C. (overnight) or −20° C. for longer term storage. The next day, the […] were measured using a human […] ELISA Kit (R & D systems, catalog #DY201) and read using a SpectraMax Plus 384 Microplate Reader.
# [2] = test system: anti-IgM-induced expression of CD69 on CD19 positive cells (B cells) in human PBMCs; assay: Assay C: PBMC IC50 assay (anti-IgM-induced CD69 expression); type: cell-based; settings: anti-IgM stimulation
# Summary of the method: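 Freshly isolated human PBMCs (2.5×10^5/well) pretreated 1 h with compound, then stimulated overnight (~16-18 h) with goat F(ab′)2 anti-human IgM. CD69 on CD19+ B cells measured by flow cytometry; IC50 from percentage CD69+ B cells versus concentration.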
# [3] = target: BTK C481S (His-TEV-hsBTK(328-659)(C481S)) (Homo sapiens (Human), UniProt Q06187, C481S); assay: Assay B: microfluidic off-chip mobility shift assay against BTK C481S enzyme; type: biochemical; settings: BTK C481S mutant
# Summary of the method: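 Substrate-to-phosphopeptide conversion quantified by microfluidic mobility shift with laser-induced fluorescence; IC50 and efficacy from log[inhibitor] vs. % activity.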
# LCK = LCK (Homo sapiens (Human), UniProt P06239); assay: Assay E: LCK biochemical assay (HotSpot Kinase Assay); settings: read-out: LCK % inhibition at 1 uM test concentration (Assay E)
# Experimental: Assay E: LCK Biochemical Assay
# The standard protocol below describes the standard HotSpot Kinase Assay run by the Reaction Biology Corporation as a service.
# The substrate (poly(EY) (Glu:Tyr (4:1)) and the cofactors were prepared in fresh Reaction Buffer (20 mM Hepes (pH 7.5), 10 mM MgCl2, 2 mM MnCl2, 1 mM EGTA, 0.02% Brij35, 0.02 mg/ml BSA, 0.1 mM Na3VO4, 2 mM DTT, 2% DMSO). To the substrate solution was then added the enzyme (LCK; recombinant human full-length (Genbank Accession #NP_005347); C-terminal His-tagged, expressed in insect cells), and the resulting solution was then gently mixed. The test compounds were dissolved in DMSO and then delivered into the kinase reaction mixture using acoustic liquid handling technology (Echo550; nanoliter range). The reaction mixture was incubated for 20 min at RT and then treated with ^33P-ATP to initiate the reaction. After 2 hours of incubation at RT, kinase activity was detected using Reaction Biology Corporation's proprietary P81 filter-binding method.
# Chain of full-length human BTK (Q06187 whole entry): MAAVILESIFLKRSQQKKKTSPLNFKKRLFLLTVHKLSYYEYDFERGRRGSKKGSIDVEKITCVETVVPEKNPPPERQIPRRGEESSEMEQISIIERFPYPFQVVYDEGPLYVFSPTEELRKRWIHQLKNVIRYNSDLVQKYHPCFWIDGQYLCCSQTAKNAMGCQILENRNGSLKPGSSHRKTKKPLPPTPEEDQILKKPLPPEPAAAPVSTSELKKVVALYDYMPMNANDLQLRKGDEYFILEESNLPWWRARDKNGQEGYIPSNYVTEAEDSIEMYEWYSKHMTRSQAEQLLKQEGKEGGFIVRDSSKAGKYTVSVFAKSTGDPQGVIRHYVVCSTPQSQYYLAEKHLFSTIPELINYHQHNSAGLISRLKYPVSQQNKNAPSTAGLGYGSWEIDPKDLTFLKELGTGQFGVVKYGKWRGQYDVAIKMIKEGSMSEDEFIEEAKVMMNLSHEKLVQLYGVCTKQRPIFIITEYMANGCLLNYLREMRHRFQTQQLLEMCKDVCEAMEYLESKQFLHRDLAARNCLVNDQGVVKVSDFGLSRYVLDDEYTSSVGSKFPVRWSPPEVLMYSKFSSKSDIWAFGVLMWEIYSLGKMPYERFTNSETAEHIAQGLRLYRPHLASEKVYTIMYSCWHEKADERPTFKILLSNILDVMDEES
# Chain of BTK C481S (His-TEV-hsBTK(328-659)(C481S)) (Q06187 328-659 C481S): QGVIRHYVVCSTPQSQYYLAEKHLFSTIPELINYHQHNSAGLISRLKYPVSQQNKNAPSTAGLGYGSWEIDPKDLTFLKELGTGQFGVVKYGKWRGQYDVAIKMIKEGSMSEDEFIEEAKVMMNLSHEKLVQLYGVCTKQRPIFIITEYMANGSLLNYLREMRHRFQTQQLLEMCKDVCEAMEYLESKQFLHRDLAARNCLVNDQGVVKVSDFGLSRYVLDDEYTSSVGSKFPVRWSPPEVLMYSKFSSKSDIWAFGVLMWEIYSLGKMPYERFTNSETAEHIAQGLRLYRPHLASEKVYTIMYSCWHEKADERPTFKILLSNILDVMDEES
# Chain of LCK (P06239 whole entry): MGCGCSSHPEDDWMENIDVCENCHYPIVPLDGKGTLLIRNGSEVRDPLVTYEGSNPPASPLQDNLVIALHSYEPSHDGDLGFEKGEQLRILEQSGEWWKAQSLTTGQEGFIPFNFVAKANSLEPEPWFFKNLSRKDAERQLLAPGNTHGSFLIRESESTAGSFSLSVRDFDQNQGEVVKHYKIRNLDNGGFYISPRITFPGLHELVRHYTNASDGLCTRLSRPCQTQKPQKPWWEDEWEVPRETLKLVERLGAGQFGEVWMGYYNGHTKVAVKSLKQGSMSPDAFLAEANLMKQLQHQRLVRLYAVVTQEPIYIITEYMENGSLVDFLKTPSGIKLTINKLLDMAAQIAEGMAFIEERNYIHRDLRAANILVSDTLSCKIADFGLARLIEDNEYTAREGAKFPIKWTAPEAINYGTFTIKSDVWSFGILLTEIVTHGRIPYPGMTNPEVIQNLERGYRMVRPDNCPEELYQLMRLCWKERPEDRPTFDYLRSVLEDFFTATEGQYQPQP
Compound,IC50 (full-length human BTK),IC50 [1],IC50 [2],IC50 [3],inhibition at 1 µM (LCK)
"Cc1c(NC(=O)c2ccc(C(C)(C)C)cc2)cccc1-c1ccnc2[nH]c(-c3ccc(C(=O)O)cc3)nc12 [Example 153, 4-{7-[3-(4-tert-Butyl-benzoylamino)-2-methyl-phenyl]-3H-imidazo[4,5-b]pyridin-2-yl}-benzoic acid]",< 100 nM,100 to 1000 nM,> 5000 nM,< 100 nM,–
"CN1CC=C(c2ccc(-c3nc4c(-c5cccc(N6CCOc7cc(C8CC8)cc(F)c7C6=O)c5CO)ccnc4[nH]3)cc2)CC1 [Example 3, 8-Cyclopropyl-6-fluoro-4-[2-(hydroxymethyl)-3-[2-[4-(1-methyl-1,2,3,6-tetrahydropyridin-4-yl)phenyl]-3H-imidazo[4,5-b]pyridin-7-yl]phenyl]-2,3,4,5-tetrahydro-1,4-benzoxazepin-5-one]",< 100 nM,100 to 1000 nM,100 to 1000 nM,–,–
"CC(C)(O)CCN1Cc2cc(-c3ccnc4[nH]c(-c5ccc(C(=O)N6CCOCC6)cc5)nc34)ccc2C1=O [Example 114, 2-(3-Hydroxy-3-methyl-butyl)-5-{2-[4-(morpholine-4-carbonyl)-phenyl]-3H-imidazo[4,5-b]pyridin-7-yl}-2,3-dihydro-isoindol-1-one]",> 5000 nM,1000 to 5000 nM,–,> 5000 nM,–
"Cc1c(NC(=O)c2ccc(C(C)(C)C)cc2)cccc1-c1ccnc2[nH]c(-c3cnn(C)c3)nc12 [Example 9, 4-tert-Butyl-N-{2-methyl-3-[2-(1-methyl-1H-pyrazol-4-yl)-3H-imidazo[4,5-b]pyridin-7-yl]-phenyl}-benzamide]",–,100 to 1000 nM,1000 to 5000 nM,–,–
"CC(C)(C)c1ccc(C(=O)NCc2ccc(-c3ccnc4[nH]c(-c5ccc(C(=O)N6CCOCC6)cc5)nc34)cc2F)cc1 [Example 118, 4-tert-Butyl-N-(2-fluoro-4-{2-[4-(morpholine-4-carbonyl)-phenyl]-3H-imidazo[4,5-b]pyridin-7-yl}-benzyl)-benzamide]",< 100 nM,< 100 nM,< 100 nM,< 100 nM,–
"CC(C)(C)c1ccc2c(c1)CCN(Cc1ccc(-c3ccnc4[nH]c(-c5ccc(C(=O)N6CCOCC6)cc5)nc34)cc1)C2=O [Example 115, 6-tert-Butyl-2-(4-{2-[4-(morpholine-4-carbonyl)-phenyl]-3H-imidazo[4,5-b]pyridin-7-yl}-benzyl)-3,4-dihydro-2H-isoquinolin-1-one]",< 100 nM,< 100 nM,100 to 1000 nM,< 100 nM,–
"Cc1c(NC(=O)c2ccc(C(C)(C)C)cc2)cccc1-c1ccnc2[nH]c(-c3ccc(C(=O)N4CCOCC4)cc3)nc12 [Example 5, 4-(tert-butyl)-N-(2-methyl-3-(2-(4-(morpholine-4-carbonyl)phenyl)-3H-imidazo[4,5-b]pyridin-7-yl)phenyl)benzamide]",–,< 100 nM,1000 to 5000 nM,–,–
"O=C(c1ccc(-c2nc3c(-c4cccc(N5CCc6cc(C7CC7)ccc6C5=O)c4CO)ccnc3[nH]2)cc1)N1CCOCC1 [Example 6, 6-Cyclopropyl-2-(2-hydroxymethyl-3-{2-[4-(morpholine-4-carbonyl)-phenyl]-3H-imidazo[4,5-b]pyridin-7-yl}-phenyl)-3,4-dihydro-2H-isoquinolin-1-one]",< 100 nM,100 to 1000 nM,1000 to 5000 nM,< 100 nM,–
"CC(C)(C)c1nc(C(=O)NCc2ccc(-c3ccnc4[nH]c(-c5ccc(N6CCC(F)(F)CC6)cn5)nc34)cc2F)no1 [Example 82, 5-tert-Butyl-N-[(4-[2-[5-(4,4-difluoropiperidin-1-yl)pyridin-2-yl]-3H-imidazo[4,5-b]pyridin-7-yl]-2-fluorophenyl)methyl]-1,2,4-oxadiazole-3-carboxamide]",< 100 nM,–,< 100 nM,–,7.3%
"Cn1cc(-c2nc3c(-c4ccc(CNC(=O)c5cc(C(C)(C)C)no5)c(F)c4)ccnc3[nH]2)cn1 [Example 144, 3-(tert-butyl)-N-(2-fluoro-4-(2-(1-methyl-1H-pyrazol-4-yl)-3H-imidazo[4,5-b]pyridin-7-yl)benzyl)isoxazole-5-carboxamide]",–,–,–,–,49%
"Cn1cc(-c2nc3c(-c4ccc(CNC(=O)N5CC(OC(C)(C)C)C5)c(F)c4)ccnc3[nH]2)cn1 [Example 55, 3-(tert-Butoxy)-N-([2-fluoro-4-[2-(1-methyl-1H-pyrazol-4-yl)-3H-imidazo[4,5-b]pyridin-7-yl]phenyl]methyl)azetidine-1-carboxamide]",–,1000 to 5000 nM,100 to 1000 nM,–,–
"CC(C)(C)c1nc(C(=O)NCc2ccc(-c3ccnc4[nH]c(-c5cnn(CCO)c5)nc34)cc2F)no1 [Example 70, 5-tert-Butyl-N-[(2-fluoro-4-[2-[1-(2-hydroxyethyl)-1H-pyrazol-4-yl]-3H-imidazo[4,5-b]pyridin-7-yl]phenyl)methyl]-1,2,4-oxadiazole-3-carboxamide]",< 100 nM,–,100 to 1000 nM,< 100 nM,–
"Cn1cc(-c2nc3c(-c4ccnc(N5CCn6c(cc7c6CC(C)(C)C7)C5=O)c4CO)ccnc3[nH]2)cn1 [Example 11, 2-(3-(hydroxymethyl)-4-(2-(1-methyl-1H-pyrazol-4-yl)-3H-imidazo[4,5-b]pyridin-7-yl)pyridin-2-yl)-7,7-dimethyl-2,3,4,6,7,8-hexahydro-1H-cyclopenta[4,5]pyrrolo[1,2-a]pyrazin-1-one]",< 100 nM,–,100 to 1000 nM,< 100 nM,–
"COc1ccc(-c2nc3c(-c4ccc(CNC(=O)c5ccc(C6CC6)cc5)c(F)c4)ccnc3[nH]2)cc1 [Example 63, 4-Cyclopropyl-N-([2-fluoro-4-[2-(4-methoxyphenyl)-3H-imidazo[4,5-b]pyridin-7-yl]phenyl]methyl) benzamide]",< 100 nM,–,1000 to 5000 nM,< 100 nM,–
"Cn1cc(-c2nc3c(-c4cccc(NC(=O)N5CC(OC(C)(C)C)C5)c4CO)ccnc3[nH]2)cn1 [Example 91, 3-(tert-Butoxy)-N-[2-(hydroxymethyl)-3-[2-(1-methyl-1H-pyrazol-4-yl)-3H-imidazo[4,5-b]pyridin-7-yl]phenyl]azetidine-1-carboxamide]",< 100 nM,–,100 to 1000 nM,< 100 nM,–
"CN(C)c1ccc(-c2nc3c(-c4cccc(N5CCOc6cc(C7CC7)cc(F)c6C5=O)c4CO)ccnc3[nH]2)cc1 [Example 39, 8-Cyclopropyl-4-(3-[2-[4-(dimethylamino)phenyl]-3H-imidazo[4,5-b]pyridin-7-yl]-2-(hydroxymethyl)phenyl)-6-fluoro-2,3,4,5-tetrahydro-1,4-benzoxazepin-5-one]",< 100 nM,–,1000 to 5000 nM,< 100 nM,–
"Cc1ccc(-n2ccn(-c3cccc(-c4ccnc5[nH]c(-c6ccc(C(=O)N7CCOCC7)cc6)nc45)c3C)c2=O)cc1 [Example 95, 1-[2-Methyl-3-(2-[4-[(morpholin-4-yl)carbonyl]phenyl]-3H-imidazo[4,5-b]pyridin-7-yl)phenyl]-3-(4-methylphenyl)-2,3-dihydro-1H-imidazol-2-one]",1000 to 5000 nM,< 100 nM,–,1000 to 5000 nM,–
"CN(C)c1ccc(-c2nc3c(-c4cccc(N5CCOc6cc(C7CC7)cc(F)c6C5=O)c4CO)ccnc3[nH]2)nc1 [Example 41, 8-cyclopropyl-4-(3-[2-[5-(dimethylamino)pyridin-2-yl]-3H-imidazo[4,5-b]pyridin-7-yl]-2-(hydroxymethyl)phenyl)-6-fluoro-2,3,4,5-tetrahydro-1,4-benzoxazepin-5-one]",< 100 nM,–,1000 to 5000 nM,< 100 nM,–
